In patent US9828343B2, “Histone demethylase inhibitors” (Celgene Quanticel Research, Inc., priority 2012, dated 2017) one finds IC50 data, which are given here for two compounds.

This assay has as its target JMJD2C (Homo sapiens (Human), UniProt Q9H3R0). Put plainly: JMJD2C TR-FRET in vitro enzyme inhibition assay. Type of assay: biochemical. Particulars: 0.3 nM JMJD2C, H3K9me3-biotin peptide, 2 μM alpha-ketoglutaric acid. From the text: This assay determines the ability of a test compound to inhibit Jarid1A, Jarid1B, and JMJD2C demethylase activity. Baculovirus expressed Jarid1A (GenBank Accession #NM_001042603, AA1-1090) was purchased from BPS Bioscience (Cat#50110). Baculovirus expressed Jarid1B (GenBank Accession #NM_006618, AA 2-751) was purchased from BPS Bioscience (Cat #50121) or custom made by MolecularThroughput. Baculovirus-expressed JMJD2C (GenBank Accession #BC143571, AA 2-372) was purchased from BPS Bioscience (Cat#50105).
The ability of test compounds to inhibit the activity of JMJD2C was determined in 384-well plate format under the following reaction conditions: 0.3 nM JMJD2C, 300 nM H3K9me3-biotin labeled peptide (Anaspec cat #64360), 2 μM alpha-ketoglutaric acid in assay buffer of 50 mM HEPES, pH7.3, 0.005% Brij35, 0.5 mM TCEP, 0.2 mg/ml BSA, 50 μM sodium L-ascorbate, and 2 μM ammonium iron(II) sulfate. Reaction product was determined quantitatively by TR-FRET after the addition of detection reagent Phycolink Streptavidin-allophycocyanin (Prozyme) and Europium-anti-di-methylated histone H3 lysine 9 (H3K9me2) antibody (PerkinElmer) in the presence of 5 mM EDTA in LANCE detection buffer (PerkinElmer) at a final concentration of 50 nM and 1 nM, respectively. […]
For orientation: TR-FRET usually uses a lanthanide donor and a delayed reading to cut background.

JMJD2C, sequence (Q9H3R0 2-372): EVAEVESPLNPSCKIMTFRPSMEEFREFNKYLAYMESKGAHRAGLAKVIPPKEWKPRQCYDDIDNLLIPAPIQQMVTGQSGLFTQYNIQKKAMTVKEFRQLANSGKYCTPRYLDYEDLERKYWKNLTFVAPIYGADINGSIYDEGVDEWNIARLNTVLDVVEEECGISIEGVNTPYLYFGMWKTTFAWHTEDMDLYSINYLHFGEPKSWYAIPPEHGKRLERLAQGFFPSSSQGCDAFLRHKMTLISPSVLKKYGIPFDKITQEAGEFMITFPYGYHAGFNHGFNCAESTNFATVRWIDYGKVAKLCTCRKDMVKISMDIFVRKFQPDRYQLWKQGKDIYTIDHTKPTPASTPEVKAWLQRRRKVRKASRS

As usually defined, the IC50 is the concentration that gives 50% inhibition. A low value points to higher potency. Consider “3-{[(6-fluoro-3,4-dihydro-2H-chromen-4-yl)methyl]amino}pyridine-4-carboxylic acid [Example 65]”, for which the IC50 was < 100 nM.

`O=C(O)c1ccncc1NCC1(O)CCCc2cc(Cl)ccc21` (centres unmarked) [Example 68, 3-{[(6-chloro-1-hydroxy-1,2,3,4-tetrahydronaphthalen-1-yl)methyl]amino}pyridine-4-carboxylic acid] came in with an IC50 of 100 to 1000 nM.
